{"source": "paper PMC9719519", "about": "“Non-classical ferroptosis inhibition by a small molecule targeting PHB2” (Nature Communications, 2022)", "assay_in_all_cases": "biochemical", "parameters_in_all_cases": "Eurofins recombinant human kinase profiling, remaining kinase activity as % of control, 10 uM ATP", "details_in_all_cases": "ATP 10 uM; read-out: %Ctrl@10 μM", "key": {"ALK(h)": {"molecular_target": "ALK(h) (Homo sapiens, UniProt Q9UM73)", "outline": "(§1)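 Activity measured in a commercial panel of 401 recombinant human protein kinases run as a kinase profiling service.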"}, "ALK4(h)": {"molecular_target": "T1, ALK4(h) (Homo sapiens, UniProt P36896)", "T1 construct": "gene ACVR1B", "outline": "as §1"}, "ASK1(h)": {"molecular_target": "T2, ASK1(h) (Homo sapiens, UniProt Q99683)", "T2 construct": "gene MAP3K5", "outline": "as §1"}, "ATR/ATRIP(h)": {"molecular_target": "ATR/ATRIP(h) (Homo sapiens, UniProt Q13535)", "outline": "as §1"}, "CDK1/cyclinB(h)": {"molecular_target": "CDK1/cyclinB(h) (Homo sapiens, UniProt P06493)", "sequence (P06493 whole entry)": "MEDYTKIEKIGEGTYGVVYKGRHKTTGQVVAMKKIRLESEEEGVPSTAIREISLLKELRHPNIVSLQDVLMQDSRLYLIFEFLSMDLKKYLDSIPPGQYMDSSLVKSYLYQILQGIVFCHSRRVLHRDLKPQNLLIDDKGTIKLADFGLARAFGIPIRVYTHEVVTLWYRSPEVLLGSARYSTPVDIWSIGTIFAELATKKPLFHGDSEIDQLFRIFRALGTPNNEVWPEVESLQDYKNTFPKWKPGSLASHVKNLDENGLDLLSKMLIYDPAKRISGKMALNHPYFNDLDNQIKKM", "sequence (P14635 whole entry partner)": "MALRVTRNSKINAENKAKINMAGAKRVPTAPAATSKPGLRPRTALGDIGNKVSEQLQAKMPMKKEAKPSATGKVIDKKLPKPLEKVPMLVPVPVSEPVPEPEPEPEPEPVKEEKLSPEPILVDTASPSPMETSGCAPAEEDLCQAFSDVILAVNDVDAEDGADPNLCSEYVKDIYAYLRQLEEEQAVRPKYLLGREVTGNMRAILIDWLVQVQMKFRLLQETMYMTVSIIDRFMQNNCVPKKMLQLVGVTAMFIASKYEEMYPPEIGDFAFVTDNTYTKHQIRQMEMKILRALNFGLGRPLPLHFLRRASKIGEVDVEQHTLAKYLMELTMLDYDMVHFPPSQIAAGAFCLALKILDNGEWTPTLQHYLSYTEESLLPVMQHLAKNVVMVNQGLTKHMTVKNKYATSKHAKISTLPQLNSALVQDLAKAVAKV", "outline": "as §1"}, "CLK2(h)": {"molecular_target": "CLK2(h) (Homo sapiens, UniProt P49760)", "outline": "as §1"}, "GRK3(h)": {"molecular_target": "GRK3(h) (Homo sapiens, UniProt P35626)", "outline": "as §1"}, "HIPK3(h)": {"molecular_target": "HIPK3(h) (Homo sapiens, UniProt Q9H422)", "sequence (Q9H422 whole entry)": "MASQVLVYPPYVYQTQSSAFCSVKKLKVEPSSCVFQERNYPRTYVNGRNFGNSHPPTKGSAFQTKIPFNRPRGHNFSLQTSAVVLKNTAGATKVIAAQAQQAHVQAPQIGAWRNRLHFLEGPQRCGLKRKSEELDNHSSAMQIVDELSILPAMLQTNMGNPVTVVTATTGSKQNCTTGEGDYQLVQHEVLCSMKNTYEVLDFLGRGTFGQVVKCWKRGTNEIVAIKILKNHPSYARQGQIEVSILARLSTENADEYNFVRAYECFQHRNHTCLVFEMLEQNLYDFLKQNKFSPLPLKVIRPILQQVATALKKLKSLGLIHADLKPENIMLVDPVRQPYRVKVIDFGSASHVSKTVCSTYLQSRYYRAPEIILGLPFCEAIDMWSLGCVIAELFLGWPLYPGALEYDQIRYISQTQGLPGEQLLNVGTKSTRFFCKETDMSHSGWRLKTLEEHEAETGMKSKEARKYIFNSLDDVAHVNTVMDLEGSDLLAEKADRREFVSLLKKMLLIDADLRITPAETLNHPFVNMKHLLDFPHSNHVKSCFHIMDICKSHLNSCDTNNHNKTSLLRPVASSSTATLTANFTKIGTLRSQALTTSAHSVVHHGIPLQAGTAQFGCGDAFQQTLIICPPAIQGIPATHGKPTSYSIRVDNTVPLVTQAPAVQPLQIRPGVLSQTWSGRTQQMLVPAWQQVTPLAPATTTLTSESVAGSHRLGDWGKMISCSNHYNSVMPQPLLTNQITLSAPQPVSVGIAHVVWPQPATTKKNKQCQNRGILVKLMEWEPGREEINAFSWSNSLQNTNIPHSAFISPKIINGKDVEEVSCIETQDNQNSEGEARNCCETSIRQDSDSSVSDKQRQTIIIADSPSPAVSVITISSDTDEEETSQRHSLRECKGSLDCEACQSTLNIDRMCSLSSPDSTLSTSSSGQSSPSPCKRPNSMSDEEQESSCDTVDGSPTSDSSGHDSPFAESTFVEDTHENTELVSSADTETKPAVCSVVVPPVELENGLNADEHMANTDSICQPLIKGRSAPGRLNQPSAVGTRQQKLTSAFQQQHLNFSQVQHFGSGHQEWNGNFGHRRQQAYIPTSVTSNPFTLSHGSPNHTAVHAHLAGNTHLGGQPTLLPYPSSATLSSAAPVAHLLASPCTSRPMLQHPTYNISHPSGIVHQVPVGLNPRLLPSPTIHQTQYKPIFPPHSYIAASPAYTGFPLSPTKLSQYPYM", "outline": "as §1"}, "IRR(h)": {"molecular_target": "T3, IRR(h) (Homo sapiens, UniProt P14616)", "T3 construct": "gene INSRR", "outline": "as §1"}, "Lyn(h)": {"molecular_target": "Lyn(h) (Homo sapiens, UniProt P07948)", "sequence (P07948 whole entry)": "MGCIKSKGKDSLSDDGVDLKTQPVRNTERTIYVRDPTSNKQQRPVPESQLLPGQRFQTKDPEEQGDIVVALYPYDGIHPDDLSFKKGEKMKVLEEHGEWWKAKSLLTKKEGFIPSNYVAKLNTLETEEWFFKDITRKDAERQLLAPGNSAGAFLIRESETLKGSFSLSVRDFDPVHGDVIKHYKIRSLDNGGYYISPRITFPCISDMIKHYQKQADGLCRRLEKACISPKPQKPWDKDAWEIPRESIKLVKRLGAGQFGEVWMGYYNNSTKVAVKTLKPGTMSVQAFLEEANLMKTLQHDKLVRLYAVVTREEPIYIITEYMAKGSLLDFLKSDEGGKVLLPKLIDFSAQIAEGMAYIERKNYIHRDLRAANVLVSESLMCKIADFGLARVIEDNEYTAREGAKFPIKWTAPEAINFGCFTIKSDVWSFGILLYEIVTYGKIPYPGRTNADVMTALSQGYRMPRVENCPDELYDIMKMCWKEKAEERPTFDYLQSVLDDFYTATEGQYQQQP", "outline": "as §1"}, "MLK3(h)": {"molecular_target": "T4, MLK3(h) (Homo sapiens, UniProt Q16584)", "T4 construct": "gene MAP3K11", "outline": "as §1"}, "MSK1(h)": {"molecular_target": "T5, MSK1(h) (Homo sapiens, UniProt O75582)", "T5 construct": "gene RPS6KA5", "outline": "as §1"}, "NDR2(h)": {"molecular_target": "T6, NDR2(h) (Homo sapiens, UniProt Q9Y2H1)", "T6 construct": "gene STK38L", "outline": "as §1"}, "PAK1(h)": {"molecular_target": "PAK1(h) (Homo sapiens, UniProt Q13153)", "outline": "as §1"}, "PKCβI(h)": {"molecular_target": "T7, PKCβI(h) (Homo sapiens, UniProt P05771)", "T7 construct": "gene PRKCB; isoform beta I", "outline": "as §1"}, "PKCβII(h)": {"molecular_target": "T8, PKCβII(h) (Homo sapiens, UniProt P05771)", "T8 construct": "gene PRKCB; isoform beta II", "outline": "as §1"}, "PKG1β(h)": {"molecular_target": "T9, PKG1β(h) (Homo sapiens, UniProt Q13976)", "T9 construct": "gene PRKG1; isoform 1beta", "outline": "as §1"}, "PKR(h)": {"molecular_target": "T10, PKR(h) (Homo sapiens, UniProt P19525)", "T10 construct": "gene EIF2AK2", "outline": "as §1"}, "RIPK1(h)": {"molecular_target": "RIPK1(h) (Homo sapiens, UniProt Q13546)", "sequence (Q13546 whole entry)": "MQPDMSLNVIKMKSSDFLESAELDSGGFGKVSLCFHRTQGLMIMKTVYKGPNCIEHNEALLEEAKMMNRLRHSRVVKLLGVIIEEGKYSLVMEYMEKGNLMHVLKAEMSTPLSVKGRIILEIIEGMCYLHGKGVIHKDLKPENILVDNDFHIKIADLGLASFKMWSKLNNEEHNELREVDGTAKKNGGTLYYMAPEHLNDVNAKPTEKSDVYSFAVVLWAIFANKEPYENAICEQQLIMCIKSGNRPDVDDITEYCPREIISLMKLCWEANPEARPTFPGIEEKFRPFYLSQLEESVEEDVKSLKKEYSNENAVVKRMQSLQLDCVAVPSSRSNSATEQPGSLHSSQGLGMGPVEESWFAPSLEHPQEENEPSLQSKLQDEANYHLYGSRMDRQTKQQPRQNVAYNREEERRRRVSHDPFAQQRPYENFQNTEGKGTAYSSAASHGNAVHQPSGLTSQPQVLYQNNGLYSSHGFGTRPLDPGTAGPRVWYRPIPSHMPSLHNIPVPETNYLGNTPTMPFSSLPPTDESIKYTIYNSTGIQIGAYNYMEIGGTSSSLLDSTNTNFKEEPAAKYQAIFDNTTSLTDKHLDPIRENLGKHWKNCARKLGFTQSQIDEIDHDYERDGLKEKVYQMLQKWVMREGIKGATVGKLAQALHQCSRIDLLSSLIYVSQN", "outline": "as §1"}, "SBK1(h)": {"molecular_target": "SBK1(h) (Homo sapiens, UniProt Q52WX2)", "outline": "as §1"}, "STK32C(h)": {"molecular_target": "STK32C(h) (Homo sapiens, UniProt Q86UX6)", "sequence (Q86UX6 whole entry)": "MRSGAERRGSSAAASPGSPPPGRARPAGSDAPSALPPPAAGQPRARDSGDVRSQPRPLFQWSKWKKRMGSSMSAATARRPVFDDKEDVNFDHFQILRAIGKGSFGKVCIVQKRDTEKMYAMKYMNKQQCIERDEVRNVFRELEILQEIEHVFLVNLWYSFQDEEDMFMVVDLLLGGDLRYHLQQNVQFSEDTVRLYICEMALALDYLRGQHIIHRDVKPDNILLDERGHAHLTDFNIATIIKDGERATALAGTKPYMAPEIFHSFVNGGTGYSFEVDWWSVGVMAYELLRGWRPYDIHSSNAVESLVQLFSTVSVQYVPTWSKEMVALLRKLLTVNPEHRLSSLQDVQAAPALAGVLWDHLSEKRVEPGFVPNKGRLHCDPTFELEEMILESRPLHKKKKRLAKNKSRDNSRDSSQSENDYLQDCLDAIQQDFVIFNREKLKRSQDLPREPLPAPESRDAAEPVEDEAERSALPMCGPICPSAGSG", "outline": "as §1"}, "TSSK4(h)": {"molecular_target": "TSSK4(h) (Homo sapiens, UniProt Q6SA08)", "outline": "as §1"}, "Tie2(Y897S)(h)": {"molecular_target": "T11, Tie2(Y897S)(h) (Homo sapiens, UniProt Q02763, Y897S)", "T11 construct": "gene TEK", "T11 sequence (Q02763 whole entry Y897S)": "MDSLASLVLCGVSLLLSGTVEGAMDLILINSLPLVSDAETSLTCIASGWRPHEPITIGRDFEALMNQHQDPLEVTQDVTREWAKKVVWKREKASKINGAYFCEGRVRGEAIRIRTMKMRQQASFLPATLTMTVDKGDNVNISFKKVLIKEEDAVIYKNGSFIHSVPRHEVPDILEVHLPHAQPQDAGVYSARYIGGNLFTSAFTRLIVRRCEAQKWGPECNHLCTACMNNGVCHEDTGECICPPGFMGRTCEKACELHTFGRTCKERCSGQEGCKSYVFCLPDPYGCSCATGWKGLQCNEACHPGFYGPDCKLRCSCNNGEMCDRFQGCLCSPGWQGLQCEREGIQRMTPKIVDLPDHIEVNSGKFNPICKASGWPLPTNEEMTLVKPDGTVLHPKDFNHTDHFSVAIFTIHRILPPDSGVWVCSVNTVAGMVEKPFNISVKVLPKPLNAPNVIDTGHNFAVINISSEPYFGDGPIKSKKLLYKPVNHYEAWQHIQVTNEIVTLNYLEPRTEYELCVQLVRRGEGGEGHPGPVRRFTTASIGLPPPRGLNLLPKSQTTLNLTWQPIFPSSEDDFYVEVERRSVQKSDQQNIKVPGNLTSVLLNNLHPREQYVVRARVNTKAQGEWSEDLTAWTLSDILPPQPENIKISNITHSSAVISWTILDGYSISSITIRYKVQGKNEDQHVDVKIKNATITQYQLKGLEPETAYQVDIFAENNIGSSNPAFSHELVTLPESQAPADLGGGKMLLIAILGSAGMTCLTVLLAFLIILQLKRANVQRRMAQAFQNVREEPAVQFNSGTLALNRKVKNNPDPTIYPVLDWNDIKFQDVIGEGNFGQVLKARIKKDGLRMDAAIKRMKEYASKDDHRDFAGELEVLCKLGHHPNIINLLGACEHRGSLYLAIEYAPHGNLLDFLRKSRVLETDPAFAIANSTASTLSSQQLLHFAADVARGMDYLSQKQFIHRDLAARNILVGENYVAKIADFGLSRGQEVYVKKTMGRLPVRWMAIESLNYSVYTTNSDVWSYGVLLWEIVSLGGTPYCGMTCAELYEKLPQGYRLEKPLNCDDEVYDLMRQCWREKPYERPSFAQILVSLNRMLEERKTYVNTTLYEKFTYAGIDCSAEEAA", "outline": "as §1"}}}
{"smiles": "C1=C(c2nc(-c3cnn(C4CCNCC4)c3)cn3cc(-c4ccccc4)nc23)CCOC1", "note": "[YL-939]", "values": [{"measurement": "remaining activity at 10 µM", "setting": "ALK(h)", "result": 106, "unit": "%"}, {"measurement": "remaining activity at 10 µM", "setting": "ALK4(h)", "result": 117, "unit": "%"}, {"measurement": "remaining activity at 10 µM", "setting": "ASK1(h)", "result": 110, "unit": "%"}, {"measurement": "remaining activity at 10 µM", "setting": "ATR/ATRIP(h)", "result": 88, "unit": "%"}, {"measurement": "remaining activity at 10 µM", "setting": "CDK1/cyclinB(h)", "result": 92, "unit": "%"}, {"measurement": "remaining activity at 10 µM", "setting": "CLK2(h)", "result": 71, "unit": "%"}, {"measurement": "remaining activity at 10 µM", "setting": "GRK3(h)", "result": 92, "unit": "%"}, {"measurement": "remaining activity at 10 µM", "setting": "HIPK3(h)", "result": 86, "unit": "%"}, {"measurement": "remaining activity at 10 µM", "setting": "IRR(h)", "result": 74, "unit": "%"}, {"measurement": "remaining activity at 10 µM", "setting": "Lyn(h)", "result": 95, "unit": "%"}, {"measurement": "remaining activity at 10 µM", "setting": "MLK3(h)", "result": 111, "unit": "%"}, {"measurement": "remaining activity at 10 µM", "setting": "MSK1(h)", "result": 79, "unit": "%"}, {"measurement": "remaining activity at 10 µM", "setting": "NDR2(h)", "result": 87, "unit": "%"}, {"measurement": "remaining activity at 10 µM", "setting": "PAK1(h)", "result": 85, "unit": "%"}, {"measurement": "remaining activity at 10 µM", "setting": "PKCβI(h)", "result": 98, "unit": "%"}, {"measurement": "remaining activity at 10 µM", "setting": "PKCβII(h)", "result": 95, "unit": "%"}, {"measurement": "remaining activity at 10 µM", "setting": "PKG1β(h)", "result": 83, "unit": "%"}, {"measurement": "remaining activity at 10 µM", "setting": "PKR(h)", "result": 97, "unit": "%"}, {"measurement": "remaining activity at 10 µM", "setting": "RIPK1(h)", "result": 106, "unit": "%"}, {"measurement": "remaining activity at 10 µM", "setting": "SBK1(h)", "result": 106, "unit": "%"}, {"measurement": "remaining activity at 10 µM", "setting": "STK32C(h)", "result": 82, "unit": "%"}, {"measurement": "remaining activity at 10 µM", "setting": "TSSK4(h)", "result": 97, "unit": "%"}, {"measurement": "remaining activity at 10 µM", "setting": "Tie2(Y897S)(h)", "result": 91, "unit": "%"}]}
